# Assay results as given in PubChem BioAssay (NCI).
# Values joined by “and” are separate entries in the source; they are usually repeats but may differ in a detail not shown here. Identical values can stand only once.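 Dose response: 5 concentrations. Exposure: 48 h. Format: 96-well plates. Endpoint: linear interpolation; highest concentration if not reached. At the GI50, growth is halved. TGI: total growth inhibition.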
# Tests used:
# Experiment in all cases: DTP human tumour cell line panel, 48 h
# [1] = test system: 786-0 renal
# [2] = test system: HCT-116 colon
# [3] = test system: KM12 colon
# [4] = test system: M14 melanoma
# [5] = test system: MCF7 breast
# [6] = test system: MDA-MB-435
# [7] = test system: MOLT-4 leukemia
# [8] = test system: TK-10 renal
# [9] = test system: U251 CNS
# [10] = test system: BT-549 breast
SMILES,TGI [1] [µM],TGI [2],TGI [3],TGI [4],TGI [5],TGI [6],TGI [7],TGI [8],TGI [9],TGI [10],GI50 [10] [µg/mL],GI50 [2] [µg/mL],GI50 [3],GI50 [4] [µg/mL],GI50 [5] [µg/mL],GI50 [6] [µg/mL],GI50 [7] [µg/mL],GI50 [8] [µg/mL],GI50 [9]
S=C(Cc1ccc2c(c1)Sc1ccccc1O2)N1CCOCC1,> 100,> 100 µM,> 100 µM,> 100 µM,> 100 µM,> 100 µM,> 100 µM,> 100 µM,> 100 µM,,,,,,,,,,
O=C(CCc1cc(O)cc(O)c1)NCCc1cc(OCc2ccccc2)cc(OCc2ccccc2)c1,41,32.2 µM,28.1 µM,34.8 µM,23.6 µM,37.6 µM,22.7 µM,46.2 µM,> 100 µM,35.8 µM,,,,,,,,,
C[C@@H]1CC[C@@]2(C)C(C(=O)O)=CCCC2[C@@]1(C)CC(=O)c1ccoc1 (stereo partly drawn),> 25,> 25 µM,> 25 µM,> 25 µM,> 25 µM,> 25 µM,> 25 µM,> 25 µM,> 25 µM,> 25 µM,,,,,,,,,
COC(=O)C(Cc1cn(C(C)n2cc(CC(NC(C)=O)C(=O)OC)c3ccccc32)c2ccccc12)NC(C)=O (stereo not drawn),,> 100 µM,> 100 µM,> 100 µM,,> 100 µM,> 100 µM,> 100 µM,> 100 µM,> 100 µM,,,,,,,,,
OCc1ccc2c(c1)CC1(C2)Cc2cc3c(cc2C1O)CCC3 (stereo not drawn),45.6,15.4 µM,16.5 µM,13 µM,17.6 µM,2.99 µM,21.1 µM,67.1 µM,20.6 µM,16 µM,,,,,,,,,
O=C(O)c1nc2ccc(C(F)(F)F)cc2[nH]c1=O,,> 100 µM,> 100 µM,> 100 µM,> 100 µM,> 100 µM,> 100 µM,> 100 µM,> 100 µM,> 100 µM,,,,,,,,,
CCOC(=O)/C=C/c1nc(C#N)c(N)o1,> 100,> 100 µM,> 100 µM,> 100 µM,> 100 µM,> 100 µM,> 100 µM,> 100 µM,> 100 µM,,,,,,,,,,
O=C1NN(C2=NNC3(C(=O)N2)c2ccccc2-c2ccccc23)C(c2ccccc2)=N/C1=C/c1ccc(Cl)cc1,,> 150 µg/mL,96.2 µg/mL,> 150 µg/mL,144 µg/mL,> 150 µg/mL,> 150 µg/mL,132 µg/mL,143 µg/mL,> 150 µg/mL,150,51.2,33.4 µg/mL,59.8,35.8,44.2,42.7,50.5,41.3 µg/mL
O=C(COc1ccc(OCC(=O)N/N=C/c2ccc(-c3ccc(Cl)cc3Cl)o2)c(Cl)c1)N/N=C/c1ccc(-c2ccc(Cl)cc2Cl)o1,> 100,> 100 µM,> 100 µM,> 100 µM,> 100 µM,> 100 µM,5.5 µM,> 100 µM,> 100 µM,> 100 µM,,,,,,,,,
CSCC[C@@H](NC(=O)[C@H](CC(C)C)NC(=O)C(Cc1cnc[nH]1)NC(=O)CNC(=O)[C@@H](NC(=O)[C@H](C)NC(=O)[C@H](Cc1c[nH]c2ccccc12)NC(=O)[C@H](CCC(N)=O)NC(=O)[C@@H](N)CC(N)=O)C(C)C)C(N)=O (stereo partly drawn),,> 100 µM,> 100 µM,,> 100 µM,,> 100 µM,,> 100 µM,,,,,,,,,,
Cc1ccc2c(c1C)C(=O)C1(Cc3cc4c(cc3C1=O)CCC4)C2 (stereo not drawn),> 100,> 100 µM,> 100 µM,> 100 µM,> 100 µM,> 100 µM,> 100 µM,> 100 µM,> 100 µM,> 100 µM,,,,,,,,,
CCOC(=O)c1c(N2CCCC2)[nH]c(=O)c(C(c2ccc(OC)cc2)c2c(O)c(C(=O)OCC)c(N3CCCC3)[nH]c2=O)c1O,> 100,> 100 µM,> 100 µM,> 100 µM,> 100 µM,> 100 µM,> 100 µM,> 100 µM,> 100 µM,> 100 µM,,,,,,,,,
O=c1[nH]c(NCc2ccncc2)nc2nc[nH]c12,> 100,> 100 µM,> 100 µM,> 100 µM,> 100 µM,> 100 µM,> 100 µM,> 100 µM,> 100 µM,> 100 µM,,,,,,,,,
COC(=O)/C=C(\C)CC/C=C(\C)CCC1OC1(C)C (stereo not drawn),23.6,24.3 µM,20.8 µM,22.9 µM,21.8 µM,,24.4 µM,22.7 µM,22.5 µM,21.8 µM,,,,,,,,,
CC1(C)CC(=O)C2=C(C1)C(c1ccccc1Cl)C1C(=O)CC(C)(C)CC1(O)O2 (stereo not drawn),> 100,> 100 µM,> 100 µM,> 100 µM,> 100 µM,> 95.8 µM,> 100 µM,> 100 µM,> 100 µM,> 100 µM,,,,,,,,,
COCOc1ccc(C(=O)Oc2cccc3c2OC(C)(C)O3)c(OCOC)c1,> 100,> 100 µM,91.1 µM,> 100 µM,> 100 µM,> 100 µM,> 100 µM,> 100 µM,> 100 µM,,,,,,,,,,
CCCCI(O)OS(=O)(=O)c1ccc(C)cc1,> 100,> 100 µM,> 100 µM,> 100 µM,> 100 µM,> 100 µM,> 100 µM,> 100 µM,> 100 µM,> 100 µM,,,,,,,,,
O=c1c(F)cn2c(=O)n1CCCCCCCn1c(=O)c(F)cn(c1=O)CCCCCCC2,> 100,> 100 µM,> 100 µM,> 100 µM,> 100 µM,> 100 µM,> 100 µM,> 100 µM,> 100 µM,,,,,,,,,,
c1ccc(C2=NC3OC2c2ccccc23)cc1 (stereo not drawn),> 10,> 10 µM,> 10 µM,> 10 µM,> 10 µM,> 10 µM,> 10 µM,> 10 µM,> 10 µM,> 10 µM,,,,,,,,,
Cc1c2ccnc(C(N)=O)c2c(C)c2c1[nH]c1ccccc12,23.3,17.4 µM,47.2 µM and 56.1 µM,> 100 µM,32 µM,,25.1 µM and 12.9 µM,22.5 µM,37.7 µM and 16.5 µM,,,,0.651 µM,,,,,,4.14 µM
CN(/N=C1\C(=O)Nc2ccccc21)c1ccccc1,,> 100 µM,> 100 µM,> 100 µM,> 100 µM,> 100 µM,> 100 µM,> 100 µM,> 100 µM,,,,,,,,,,
